Here are results for two compounds from the Kinase Knowledgebase extract (Sharma et al. 2016).

Several values for one entry are separate records, joined by “and”; a condition that tells them apart may be missing. Equal entries are not always repeated.

In experiment [1] the target is EGFR (UniProt P00533).
In experiment [2] the target is EGFR (human) (UniProt P00533). The following applies: kb.
EGFR (human), sequence (P00533 whole entry, looked up): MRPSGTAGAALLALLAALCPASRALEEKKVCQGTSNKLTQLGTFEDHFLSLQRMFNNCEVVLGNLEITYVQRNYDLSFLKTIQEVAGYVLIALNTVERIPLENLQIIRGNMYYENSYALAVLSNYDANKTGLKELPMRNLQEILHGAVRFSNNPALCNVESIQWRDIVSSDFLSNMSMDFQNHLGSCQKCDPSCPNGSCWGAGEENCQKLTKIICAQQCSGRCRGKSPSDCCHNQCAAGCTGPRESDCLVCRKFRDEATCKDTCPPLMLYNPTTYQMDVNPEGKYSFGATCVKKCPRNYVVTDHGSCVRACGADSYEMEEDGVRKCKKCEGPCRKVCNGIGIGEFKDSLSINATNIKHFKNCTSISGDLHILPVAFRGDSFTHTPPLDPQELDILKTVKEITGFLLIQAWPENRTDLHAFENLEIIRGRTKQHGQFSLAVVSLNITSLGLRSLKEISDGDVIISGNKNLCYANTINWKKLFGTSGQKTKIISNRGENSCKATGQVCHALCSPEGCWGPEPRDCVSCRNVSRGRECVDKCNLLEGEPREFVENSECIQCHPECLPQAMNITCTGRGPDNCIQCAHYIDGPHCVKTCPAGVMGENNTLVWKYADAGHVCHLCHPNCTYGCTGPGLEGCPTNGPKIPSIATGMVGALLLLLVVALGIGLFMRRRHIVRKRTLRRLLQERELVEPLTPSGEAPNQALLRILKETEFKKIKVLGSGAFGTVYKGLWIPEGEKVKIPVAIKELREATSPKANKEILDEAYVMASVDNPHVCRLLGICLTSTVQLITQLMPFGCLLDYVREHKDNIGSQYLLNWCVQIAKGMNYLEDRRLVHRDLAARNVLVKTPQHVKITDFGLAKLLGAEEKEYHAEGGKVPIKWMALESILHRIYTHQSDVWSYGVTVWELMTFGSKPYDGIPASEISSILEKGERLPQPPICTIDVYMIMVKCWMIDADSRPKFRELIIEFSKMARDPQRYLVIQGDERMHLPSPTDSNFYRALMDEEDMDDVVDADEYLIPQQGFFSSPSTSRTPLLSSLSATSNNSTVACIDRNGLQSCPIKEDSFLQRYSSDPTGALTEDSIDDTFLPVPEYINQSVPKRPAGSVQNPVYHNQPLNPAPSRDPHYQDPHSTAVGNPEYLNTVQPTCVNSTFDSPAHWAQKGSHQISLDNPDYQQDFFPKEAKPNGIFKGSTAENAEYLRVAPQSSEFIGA

EGFR, sequence (P00533 whole entry, looked up): as above

For `COc1cc2ncnc(Nc3cccc(Cl)c3F)c2cc1OC1CCN(C(=O)CO)CC1`, the IC50 in experiment [1] was 3 nM and 1 to 100 nM; in experiment [2] it was 1 to 100 nM.
On to `COc1cc2ncnc(Nc3cccc(Cl)c3F)c2cc1OC1CCN(C(=O)COP(=O)(O)O)CC1`, for which the 50% inhibitory concentration (IC50) in experiment [1] and in experiment [2] was 1 to 100 nM each time.

By IC50 is commonly meant the concentration that inhibits the measured activity by half.
